Data: patent publication US20170173134A1 (priority 2011, published 2017)
Read-outs that look alike come from different tables or passages of the source.

Key:
[1] = in vivo; cited from earlier work
[2] = tested on: MNU-induced urinary bladder carcinoma; assay: Second experiment (Table 5): histological assessment, MNU-induced bladder cancer; assay type: in vivo, rats
Experimental: The therapeutic effect in urinary bladder cancer in animals was assessed by histological evaluation of the tissues. The criteria for assessing normality of the tissues examined for all the experiments using the same animal model, that is, the experiments reported in Table 4, Table 5, Table 6-A, Table 6-B, Table 6-C and Table 6-D are: normal tissue, flat hyperplasia, papillary hyperplasia.
Flat hyperplasia and papillary hyperplasia are reactive changes of an inflammatory nature, though benign, and their occurrence in the experiments for assessment of new drugs in animals affected with cancer, indicates a reversal of the cancer process to non-cancerous stages.
Metaplasia is defined as the replacement of a normal functional tissue with another tissue with different structure, with loss of function, and, thus, is considered a form of premalignant lesion.
[…] animals (n=50) were used in the experiment. The therapeutic effect was assessed through histological assessment of tissues, and the toxicological effect of the compounds, through assessment of the presence or absence of urinary bleeding also called hematuria.
All the animals in the experiment were subjected to intravesical applications of 1.5 mg/kg of n-methyl-n-nitrosourea (MNU) dissolved in 0.30 mL of sodium citrate, using a catheter, for 7 weeks. One group (control) of 10 animals was given only saline solution ([…]), also intravesically and for an equal period.
The purpose of using n-methyl-n-nitrosourea (MNU) was to experimentally induce immunosuppression and subsequently producing urinary bladder carcinoma. After treatment with MNU, the animals were divided into 05 groups of 10 animals each.
After this procedure, all the 10 animals of each group were sacrificed and their urinary bladders were removed for collection of tissue fragments, which were embedded in paraffin and prepared for histological section, by the usual techniques.
For the histological examinations, sections (2 μm) of the tissue of the urinary bladder were cut using microtome Zeiss, mounted on microscope slides, and stained with hematoxylin-eosin (HE), for subsequent pathology assessment, quantification of cellular changes and comparison between control and treatment groups.

[3] = tested on: MNU-induced cancerous lesions of the urinary bladder; assay type: in vivo, Fischer 344 rats
[4] = 10 mg/kg intravesical, 14 weeks; n = 10
bladder cancer = settings: human, in vivo; cited from earlier work
[5] = tested on: MNU-induced urinary bladder carcinoma; parameters: species or system rats; settings: rat, in vivo
[6] = tested on: MNU-induced bladder cancer; assay type: in vivo, female Fischer 344 rats
[7] = tested on: bladder cancer induced by MNU; parameters: species or system Fischer rats; settings: rat, in vivo
[8] = rat, in vivo
[9] = n = 10
[10] = MNU-induced bladder cancer, 10 mg/kg intravesical (topical application), 14 weeks, n = 10
[11] = Table 5 experiment, intravesical

S=P(N1CC1)(N1CC1)N1CC1 [Thiotepa]
Chemical cystitis, (%) patients affected [1]: 20% | Myelosuppression, (%) patients affected [1]: 10%

CCCCC(=O)OCC(=O)[C@]1(O)Cc2c(O)c3c(c(O)c2[C@@H](O[C@H]2C[C@H](NC(=O)C(F)(F)F)[C@H](O)[C@H](C)O2)C1)C(=O)c1c(OC)cccc1C3=O [Valrubicin, N-trifluoroacetyladriamycin-14-valerate]
High grade intraepithelial neoplasia (carcinoma in situ-Tis), animals [2, 10]: 2 (20%) n (%) | Low grade intraepithelial neoplasia, animals [2, 10]: 5 (50%) n (%) | Normal, animals [2, 10]: 1 (10%) n (%) | Papillary carcinoma (Ta), animals [2, 10]: 1 (10%) n (%) | Squamous metaplasia, animals [2, 10]: 1 (10%) n (%) | therapeutic effectiveness / efficacy [2, 11]: 10% | Flat hyperplasia, animals ([3]; n = 10): 1(10%) | High-grade intraepithelial carcinoma (carcinoma in situ-Tis), animals ([3]; n = 10): 2(20%) | Low-grade intraepithelial carcinoma, animals ([3]; n = 10): 4(40%) | Papillary carcinoma (Ta), animals ([3]; n = 10): 1(10%) | Papillary hyperplasia, animals ([3]; n = 10): 1(10%) | Squamous metaplasia, animals ([3]; n = 10): 1(10%) | Toxicology: (Hematuria) [4]: Positive | Toxicology: (Hematuria), % of animals [4]: (100%) | Toxicology: Presence of hematuria, number of animals (Fischer 344, rat, in vivo): N = 10 | Toxicology: Presence of hematuria (n = 10): Positive | Toxicology: Presence of hematuria, % of animals (n = 10): 100% | patients treated in whom results are seen (bladder cancer): 20%

Bacillus Calmette-Guérin [BCG]
animals with positive result / positive outcome (histopathology) [5]: 40% | Flat hyperplasia, animals ([3]; rat, in vivo): 2(20%) | High-grade intraepithelial carcinoma (carcinoma in situ-Tis), animals ([3]; rat, in vivo): 2(20%) | Low-grade intraepithelial carcinoma, animals ([3]; rat, in vivo): 3(30%) | Normal, animals ([3]; rat, in vivo): 0% | Papillary hyperplasia, animals ([3]; rat, in vivo): 2(20%) | Squamous metaplasia, animals ([3]; rat, in vivo): 1(10%) | Flat hyperplasia, number of animals ([6]; rat, in vivo): 2 | High-grade intraepithelial carcinoma (carcinoma in situ-Tis), number of animals ([6]; rat, in vivo): 3 | Low grade Intraepithelial neoplasia, number of animals ([6]; rat, in vivo): 2 | Normal, number of animals ([6]; rat, in vivo): 0 | Papillary carcinoma (Ta), number of animals ([6]; rat, in vivo): 1 | Papillary hyperplasia, number of animals ([6]; rat, in vivo): 2 | animals with recurrent/refractory malignant lesions ([6]; rat, in vivo): 06 | success rate / responders ([6]; rat, in vivo): 40% | Flat hyperplasia, number of animals [7]: 1 | High-grade Intraurothelial Neoplasia - Carcinoma in situ (pTis), number of animals [7]: 1 | Low-grade Intraurothelial Neoplasia, number of animals [7]: 1 | Normal, number of animals [7]: 1 | Papillary Carcinoma (pTa), number of animals [7]: 2 | Papillary hyperplasia, number of animals [7]: 3 | Urothelial carcinoma with lamina propria invasion (pT1), number of animals [7]: 2 | recurrent or refractory / malignant lesions [7]: 83% | recurrent or refractory lesions [7]: 17% | responders [7]: 83% | responders (absence of malignant lesions) [7]: 17% | Toxicology: (Hematuria) [8]: Positive | Toxicology: (Hematuria), % of animals [8]: (100%) | degree of hematuria moderate, % of animals [8]: 80% | degree of hematuria severe, % of animals [8]: 20% | Toxicology: Presence of hematuria (rat, in vivo): Positive | Toxicology: Presence of hematuria, % of animals (rat, in vivo): (100%) | Toxicology: Presence of hematuria, number of animals (rat, in vivo): n = 10 | patients with no recurrence of cancer during the follow-up period (bladder cancer): 39% | rate of recurrence after 5 years (SWOG 8507) (bladder cancer): 60% | recurrence rate after 5 years (bladder cancer): 34% | relapse among patients who respond well in the early days (bladder cancer): 30% | patients affected by local toxicity (cystitis, macroscopic haematuria) [1]: up to 75% | patients with unwanted side effects (irritation, haematuria, dysuria) [1]: around 90% | withdrawal from treatment because of local toxicity [1]: around 15%

COc1cccc2c1C(=O)c1c(O)c3c(c(O)c1C2=O)C[C@@](O)(C(=O)CO)C[C@@H]3O[C@H]1C[C@H](N)[C@H](O)[C@H](C)O1 [Doxorubicin]
Allergic reaction, (%) patients affected [1]: 1% | Chemical cystitis, (%) patients affected [1]: 25%

CO[C@@]12[C@H](COC(N)=O)C3=C(C(=O)C(C)=C(N)C3=O)N1C[C@@H]1N[C@@H]12 [Mitomycin C]
animals that had cancer after treatment [2, 11]: 50% | Flat hyperplasia, animals ([3]; n = 10): 1(10%) | High-grade intraepithelial carcinoma (carcinoma in situ-Tis), animals ([3]; n = 10): 3(30%) | Low-grade intraepithelial carcinoma, animals ([3]; n = 10): 6(60%) | Normal, animals ([3]; n = 10): 0% | patients with no recurrence of cancer during the follow-up period (bladder cancer): 19% | recurrence rate after 5 years (bladder cancer): 64% | Bladder contraction, (%) patients affected [1]: <2% | Hematuria, (%) patients affected [1]: 10% | Myelosuppression, (%) patients affected [1]: <10%

CC(=O)O[C@@]12CO[C@@H]1C[C@H](O)[C@@]1(C)C(=O)[C@H](O)C3=C(C)[C@@H](OC(=O)[C@H](O)[C@@H](NC(=O)OC(C)(C)C)c4ccccc4)C[C@@](O)([C@@H](OC(=O)c4ccccc4)[C@H]21)C3(C)C [Docetaxel]
Flat hyperplasia, number of animals ([6]; rat, in vivo): 1 | High-grade intraepithelial carcinoma (carcinoma in situ-Tis), number of animals ([6]; rat, in vivo): 3 | Low grade Intraepithelial neoplasia, number of animals ([6]; rat, in vivo): 2 | Normal, number of animals ([6]; rat, in vivo): 1 | Papillary carcinoma (Ta), number of animals ([6]; rat, in vivo): 1 | Papillary hyperplasia, number of animals ([6]; rat, in vivo): 1 | Squamous metaplasia, number of animals ([6]; rat, in vivo): 1 | success rate / responders ([6]; rat, in vivo): 20% | Toxicology: (Hematuria), number of animals positive [9]: +10

Nc1ccn([C@@H]2O[C@H](CO)[C@@H](O)C2(F)F)c(=O)n1 [Gemcitabine]
Flat hyperplasia, number of animals ([6]; n = 10): 2 | High-grade intraepithelial carcinoma (carcinoma in situ-Tis), number of animals ([6]; n = 10): 4 | Low grade Intraepithelial neoplasia, number of animals ([6]; n = 10): 2 | Papillary hyperplasia, number of animals ([6]; n = 10): 2 | success rate / responders ([6]; rat, in vivo): 40% | Toxicology: (Hematuria), number of animals in which absent [9]: in 06 | Toxicology: (Hematuria), number of animals positive [9]: +in 04
